Values quoted from earlier work as cited in US12403291B2, “Submucosal bioresorbable drug eluting platform” (Intersect ENT, Inc., priority 2019, dated 2025).

Settings: MF per gram of tissue

C[C@@H]1C[C@H]2[C@@H]3CCC4=CC(=O)C=C[C@]4(C)[C@@]3(Cl)[C@@H](O)C[C@]2(C)[C@@]1(OC(=O)c1ccco1)C(=O)CCl [Mometasone furoate, mometasone furoate]
concentration level of therapeutic effectiveness: 0.1 µg/g
